For this assay, the system named is t-tau/p-tau181p. Kind of assay: CSF total tau / p-tau181P, Study ALZ1005. The note with it: for CSF P-tau percent change from baseline at day 28, Mean (SD) / CSF P-tau percent change from baseline at day 28, Median (range) / CSF total tau percent change from baseline at day 28, Mean (SD) / CSF total tau percent change from baseline at day 28, Median (range): Caucasian early AD. In kind it is in vivo, human. The procedure:
In addition, exploratory measurements of plasma/CSF levels of APP fragments (sAPPα, sAPPβ, and total sAPP) and CSF levels of BACE1, t-tau, and p-tau were performed.
Baseline Aβ1–42, p-tau181P, and t-tau concentrations were measured using Innotest® Phospho-TAU181P, Innotest® hTAU Ag, and Innotest® β-AMYLOID1–42 (Innogenetics/Fujirebio, Ghent, Belgium) and the Luminex analytical platform (Luminex Corp., Austin, TX, USA). CSF samples from both the ALZ1005 (Caucasian) and ALZ1008 (Japanese) studies were analyzed in the same laboratory setting using the same assays and analytical platform. Diagnostic threshold CSF concentrations for AD vs. normal controls for Aβ1–42 were applied to the current sample set to judge the likelihood of having cerebral amyloid plaque deposition.
Treatment effect on plasma/CSF Aβ as compared with placebo was estimated by 95% CI for percent changes from baseline in each of the Aβ fragments (Aβ1–37, Aβ1–38, Aβ1–40, and Aβ1–42) in CSF and plasma. For primary and secondary biomarkers, day 28% changes from baseline, the least squares (LS) means (converted to original units), and treatment differences relative to placebo (with corresponding 95% CI) were analyzed on the basis of an analysis of covariance model that included treatment group and baseline score as a covariate. Day 28 changes from baseline in CSF tau/p-tau were summarized using descriptive statistics. Data were summarized and plotted by dose group, and exposure-response relationship was explored. […] Variability of predose baseline parameters vs. day 28 individual CSF ratios of Aβ1–42 to Aβ1–40 across treatment groups was explored graphically. Analyses were performed on individual populations of preclinical AD and MCI due to AD as well as the combined population of early AD.

Regarding `C[C@@]1(c2cc(NC(=O)c3ccc(C#N)cn3)ccc2F)C=CSC(N)=N1` [atabecestat], under “10-mg and 50-mg doses, Caucasian and Japanese”, the “changes in CSF t-tau or p-tau over 4-week treatment” value was “no relevant changes”. Also, where the note is “10 mg daily”, the “CSF P-tau percent change from baseline at day 28, Mean (SD)” value is recorded as 3.56 (4.797) %; the “CSF P-tau percent change from baseline at day 28, Median (range)” value is recorded as 3.45 (− 4.6; 11.5) %; the “CSF total tau percent change from baseline at day 28, Mean (SD)” value is recorded as 4.18 (7.629) %; the “CSF total tau percent change from baseline at day 28, Median (range)” value is listed as 6.76 (− 11.2; 16.1) %. In addition, for the setting “50 mg daily”, the “CSF P-tau percent change from baseline at day 28, Mean (SD)” value is 7.36 (3.648) %; the “CSF P-tau percent change from baseline at day 28, Median (range)” value was 7.42 (1.6; 16.7) %; the “CSF total tau percent change from baseline at day 28, Mean (SD)” value is listed as 8.02 (6.557) %; the “CSF total tau percent change from baseline at day 28, Median (range)” value is listed as 7.64 (− 4.5; 23.4) %.
